We go through 4 molecules from US10941157B2, “Pesticidal compositions and uses thereof” (Gilead Apollo, LLC, priority 2015, dated 2021).

Each structure is given as a SMILES string. ≈ marks a conversion by molar mass, not a printed value.

One assay deals with Phakopsora pachyrhizi. Nature of the assay: Foliar protection test for Asian soybean rust control. The assay is classed as in vivo. The conditions noted are these: foliar application to soybean (Glycine max AG4832), percent disease area evaluated 14 days later.
Another assay concerns Botrtyis cinerea (Bc). Nature of the assay: In vitro pathogen growth inhibition assay, Bc. The conditions noted are these: 48 h, ≥90% inhibition; 48 hours vs 2% DMSO control; read-out: Compound Concentration (ppm) sufficient for ≥90% inhibition of growth, Bc. Type of assay: cell-based. The procedure, abridged: (§1)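 Spores in 17% V8 liquid medium, or 1.5 mm Rs mycelial plugs in ¼ PDB, incubated with compound; final concentration checked by OD600 for precipitation. OD readings at 24 and 48 h, blank-subtracted, plus visual ratings; value is concentration giving ≥90% growth inhibition.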

For assay [1], the system named is Blumeria graminis f. sp. hordei. Put plainly: Foliar protection test for barley powdery mildew control. Type of assay: in vivo. As to conditions: foliar spray on Hordeum vulgare cv. Perry, inoculated 24 hours after treatment, evaluated 7 days later. On the procedure: Plants (Hordeum vulgare cv. Perry) were grown for 6 days in 2-inch square pots containing Metromix 200 medium amended with fertilizer. […] After inoculation with the pathogen of Blumeria graminis f. sp. hordei, plants were kept at conditions of 20 to 22° C., 70% relative humidity, and 200 uM of light to facilitate infection and disease development. […] An atomizer was used for applying the solution onto both sides of the leaves until thoroughly wetted. […] At 24 hours after treatment, the plants were moved to a cooler chamber and inoculated by shaking well-colonized, untreated stock plants above the treated plants. This allowed producing a settling cloud of spores and resulting in uniform infection. Efficacy was evaluated in 7 days later by examining leaves for colonization and growth of mildew. Table 4 lists the results of barley powdery mildew control at a compound concentration of 10 ppm or lower.

Assay [2] concerns Fusarium moniliforme (Fm). Put plainly: In vitro pathogen growth inhibition assay, Fm. Type of assay: cell-based. As to conditions: Fusarium verticillioides; ≥90% inhibition; 48 hours vs 2% DMSO control; read-out: Compound Concentration (ppm) sufficient for ≥90% inhibition of growth, Fm. The procedure, abridged: as §1
Assay [3] relates to Phytophthora capsici (Pc). Put plainly: In vitro pathogen growth inhibition assay, Pc. The assay is classed as cell-based. The conditions noted are these: 48 h, ≥90% inhibition, 48 hours vs 2% DMSO control, read-out: Compound Concentration (ppm) sufficient for ≥90% inhibition of growth, Pc. The procedure, abridged: (§2)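 Value reported is the compound concentration reaching ≥90% growth inhibition, from OD readings at 24 and 48 h after blank subtraction, confirmed visually. Inoculum was spores diluted in 17% V8 medium, except Rs, using 1.5 mm mycelial plugs in ¼ PDB; actual compound concentration corrected via OD600.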

The subject of assay [4] is Mycosphaerella graminicola (synthetic Septoria tritici). Nature of the assay: Foliar protection test for wheat septoria leaf blotch control. Type of assay: in vivo. The conditions noted are these: foliar spray on Triticum aestivum cv. WinterHawk, inoculated 1 hour after treatment, evaluated 16 days later.
The subject of the next assay is Rhizoctonia solani (Rs). Put plainly: In vitro pathogen growth inhibition assay, Rs (mycelial plugs). The assay is classed as cell-based. As to conditions: Rhizoctonia solani, 48 h, ≥90% inhibition; mycelial plugs; 48 hours vs 2% DMSO control; read-out: Compound Concentration (ppm) sufficient for ≥90% inhibition of growth, Rs. The method, boiled down:
as §2

The test system of another assay is Fusarium graminearum. The assay is classed as in vivo. The conditions noted are these: spray on flowering Triticum aestivum cv. Samson, inoculated 24 hours after treatment, evaluated 14 days later.
The subject of another assay is Septoria tritici (St). Put plainly: In vitro pathogen growth inhibition assay, St. The assay is classed as cell-based. As to conditions: Zymoseptoria tritici, 48 h, ≥90% inhibition; 48 hours vs 2% DMSO control; read-out: Compound Concentration (ppm) sufficient for ≥90% inhibition of growth, St. The method, boiled down: as §1
In the next assay the test system is Diplodia maydis (Dm). Nature of the assay: In vitro pathogen growth inhibition assay, Dm. Type of assay: cell-based. As to conditions: Stenocarpella maydis, 48 h, ≥90% inhibition; 48 hours vs 2% DMSO control; read-out: Compound Concentration (ppm) sufficient for ≥90% inhibition of growth, Dm. The procedure, abridged:
as §2

The next assay relates to Sphaerotheca fuliginea. Put plainly: Foliar protection for cucumber powdery mildew control. The assay is classed as in vivo. As to conditions: foliar spray on Cucumis sativus cv. Straight Eight, inoculated 24 hours after treatment, evaluated 7 days later. On the procedure: Plants (Cucumis sativus cv. Straight Eight) were grown for 10 days in 2.5-inch square pots containing Metromix 200 medium amended with fertilizer. For propagation, plants were maintained in a growth chamber at conditions of 23 to 27° C., 16 hour light cycle, ambient humidity, and with sub-irrigation as needed. After inoculation with the pathogen of Sphaerotheca fuliginea, plants were kept at conditions of 23 to 27° C., 16 hour light cycle, 60% relative humidity, and with sub-irrigation as needed to facilitate infection and disease development. […] An atomizer was used for applying the solution onto both sides of the leaves until thoroughly wetted. […] At 24 hours after treatment, the plants were moved to a cooler chamber and inoculated by shaking well-colonized, untreated stock plants above the treated plants. This allowed producing a settling cloud of spores and resulting in uniform infection. Inoculated plants were kept near other sporulating stock plants to allow for infection of newly emerging leaves. Efficacy was evaluated in 7 days later by examining leaves for colonization and growth of mildew. Table 5 lists the results of cucumber powdery mildew control at a compound concentration of 10 ppm or lower.

Another assay concerns Puccinia triticina. Put plainly: Foliar protection test for wheat leaf rust control. The assay is classed as in vivo. The conditions noted are these: foliar application to wheat (Triticum aestivum cv. Winterhawk), evaluated 10 days later.
Assay [5] has as its system Fusarium virguliforme (Fv). Put plainly: In vitro pathogen growth inhibition assay, Fv. Type of assay: cell-based. As to conditions: ≥90% inhibition, 48 hours vs 2% DMSO control, read-out: Compound Concentration (ppm) sufficient for ≥90% inhibition of growth, Fv. The procedure, abridged:
as §2

Assay [6] concerns Collectotrichum graminicola (Cg). Put plainly: In vitro pathogen growth inhibition assay, Cg. The assay is classed as cell-based. As to conditions: 48 h, ≥90% inhibition; 48 hours vs 2% DMSO control; read-out: Compound Concentration (ppm) sufficient for ≥90% inhibition of growth, Cg. The procedure, abridged: as §1

With `COCCO[C@@H](Cn1c(=O)n(C(C)C(=O)NC(C)C)c(=O)c2c(C)c(-n3nccn3)sc21)c1cc(F)ccc1OC` (stereo partly drawn) [Compound I-082, 2-(1-((R)-2-(5-fluoro-2-methoxyphenyl)-2-(2-methoxyethoxy)ethyl)-5-methyl-2,4-dioxo-6-(2H-1,2,3-triazol-2-yl)-1,4-dihydrothieno[2,3-d]pyrimidin-3 (2H)-yl)-N-isopropylpropanamide], the “Asian Soybean Rust Control at a compound concentration of 25 ppm or lower” value (shortened to “Asian Soybean Rust Control … of 25 ppm or lower”) in the assay on Phakopsora pachyrhizi is “B (from 50 to 69% control of Asian soybean rust)”. The IC90 in the assay with Botrtyis cinerea (Bc) worked out at 2 µg/mL (≈ 3.4 µM); in assay [2], 0.08 µg/mL (≈ 0.136 µM); in assay [3] it was 10 µg/mL (≈ 17 µM); with Rhizoctonia solani (Rs) it was 0.24 µg/mL (≈ 0.408 µM); in the assay on Septoria tritici (St), 30 µg/mL (≈ 51 µM); in the assay with Diplodia maydis (Dm) it was 0.4 µg/mL (≈ 0.68 µM). The IC90 in [5] and in assay [6] was 0.4 µg/mL (≈ 0.68 µM) throughout. Besides, the “Barley Powdery Mildew Control at a compound concentration of 10 ppm or lower” value in assay [1] is on record as “AA (≥85% control of barley powdery mildew)”. Further, the “Septoria Leaf Blotch Control at a compound concentration of 25 ppm or lower” value in [4] was “AA (≥85% control of wheat septoria leaf blotch)”. In addition, the “Wheat Fusarium Head Blight Control at a compound concentration of 25 ppm or lower” value in the assay on Fusarium graminearum was “C (from 25 to 49% control of wheat fusarium head blight)”. Also, the “Cucumber Powdery Mildew Control at a compound concentration of 10 ppm or lower” value with Sphaerotheca fuliginea is on record as “AA (≥85% control of cucumber powdery mildew)”. In addition, the “Wheat Leaf Rust Control at a compound concentration of 10 ppm or lower” value (from here on “Wheat Leaf Rust Control … of 10 ppm or lower”) in the assay with Puccinia triticina is recorded as “B (from 50 to 69% control of wheat leaf rust)”.
Consider `COc1ccc(F)cc1[C@H](Cn1c(=O)n([C@@H](C)C(=O)N(C)C(C)C)c(=O)c2c(C)c(-n3nccn3)sc21)OCCO` [Compound I-089, (S)-2-(1-((R)-2-(5-fluoro-2-methoxyphenyl)-2-(2-hydroxyethoxy)ethyl)-5-methyl-2,4-dioxo-6-(2H-1,2,3-triazol-2-yl)-1,4-dihydrothieno[2,3-d]pyrimidin-3 (2H)-yl)-N-isopropyl-N-methylpropanamide], for which the “Asian Soybean Rust Control … of 25 ppm or lower” value in the assay on Phakopsora pachyrhizi is “A (from 70% to 84% control of Asian soybean rust)”. Also, the IC90 in the assay with Botrtyis cinerea (Bc) is greater than 0.4 µg/mL; in assay [2] it was 0.08 µg/mL (≈ 0.136 µM); in assay [3], no less than 50 µg/mL; in the assay on Rhizoctonia solani (Rs), 0.08 µg/mL (≈ 0.136 µM); in the assay with Septoria tritici (St), no less than 10 µg/mL; in the assay with Diplodia maydis (Dm), 2 µg/mL (≈ 3.4 µM). The IC90 in assay [5] and in assay [6] was greater than 0.4 µg/mL throughout. Moreover, in [1], the “Barley Powdery Mildew Control at a compound concentration of 10 ppm or lower” value was “B (from 50 to 69% control of barley powdery mildew)”. In addition, the “Septoria Leaf Blotch Control at a compound concentration of 25 ppm or lower” value in assay [4] is “C (from 25 to 49% control of wheat septoria leaf blotch)”. Also, in the assay with Fusarium graminearum, the “Wheat Fusarium Head Blight Control at a compound concentration of 25 ppm or lower” value was “D (<25% control of wheat fusarium head blight)”. Moreover, the “Cucumber Powdery Mildew Control at a compound concentration of 10 ppm or lower” value in the assay on Sphaerotheca fuliginea is recorded as “AA (≥85% control of cucumber powdery mildew)”. The “Wheat Leaf Rust Control … of 10 ppm or lower” value with Puccinia triticina was “AA (≥85% control of wheat leaf rust)”.
Take `COc1ccc(F)cc1[C@H](Cn1c(=O)n([C@H](C)C(=O)N(C)C(C)C)c(=O)c2c(C)c(-n3nccn3)sc21)OCCO` [Compound I-090, (R)-2-(1-((R)-2-(5-fluoro-2-methoxyphenyl)-2-(2-hydroxyethoxy)ethyl)-5-methyl-2,4-dioxo-6-(2H-1,2,3-triazol-2-yl)-1,4-dihydrothieno[2,3-d]pyrimidin-3 (2H)-yl)-N-isopropyl-N-methylpropanamide]: the “Asian Soybean Rust Control … of 25 ppm or lower” value with Phakopsora pachyrhizi is listed as “B (from 50 to 69% control of Asian soybean rust)”. In addition, the IC90 with Botrtyis cinerea (Bc) was 2 µg/mL (≈ 3.4 µM); in [2], 0.08 µg/mL (≈ 0.136 µM); in [3] it was 2 µg/mL (≈ 3.4 µM); in the assay with Rhizoctonia solani (Rs) it was 0.08 µg/mL (≈ 0.136 µM); in the assay on Septoria tritici (St) it was no less than 2 µg/mL; with Diplodia maydis (Dm), greater than 0.08 µg/mL. Moreover, the figures for the IC90 in assay [5] and in [6] were greater than 0.4 µg/mL and 0.08 µg/mL (≈ 0.136 µM), respectively. In addition, the “Barley Powdery Mildew Control at a compound concentration of 10 ppm or lower” value in assay [1] was “A (from 70% to 84% control of barley powdery mildew)”. Besides, the “Septoria Leaf Blotch Control at a compound concentration of 25 ppm or lower” value in assay [4] was “A (from 70% to 84% control of wheat septoria leaf blotch)”. In addition, the “Wheat Fusarium Head Blight Control at a compound concentration of 25 ppm or lower” value in the assay with Fusarium graminearum was “D (<25% control of wheat fusarium head blight)”. In the assay on Sphaerotheca fuliginea, the “Cucumber Powdery Mildew Control at a compound concentration of 10 ppm or lower” value is recorded as “A (from 70% to 84% control of cucumber powdery mildew)”. In addition, in the assay on Puccinia triticina, the “Wheat Leaf Rust Control … of 10 ppm or lower” value is “AA (≥85% control of wheat leaf rust)”.
For `COc1ccc(F)cc1[C@H](Cn1c(=O)n([C@H](C)C(=O)NC2CCC2)c(=O)c2c(C)c(-n3nccn3)sc21)OCCO` [Compound I-092, (R)—N-cyclobutyl-2-(1-((R)-2-(5-fluoro-2-methoxyphenyl)-2-(2-hydroxyethoxy)ethyl)-5-methyl-2,4-dioxo-6-(2H-1,2,3-triazol-2-yl)-1,4-dihydrothieno[2,3-d]pyrimidin-3(2H)-yl)propanamide], the “Asian Soybean Rust Control … of 25 ppm or lower” value with Phakopsora pachyrhizi is recorded as “B (from 50 to 69% control of Asian soybean rust)”. Moreover, the IC90 with Botrtyis cinerea (Bc) was 0.4 µg/mL (≈ 0.682 µM); in assay [2], 0.08 µg/mL (≈ 0.136 µM); in [3], 2 µg/mL (≈ 3.41 µM); in the assay with Rhizoctonia solani (Rs), 0.08 µg/mL (≈ 0.136 µM); with Septoria tritici (St), no less than 2 µg/mL; with Diplodia maydis (Dm), 0.4 µg/mL (≈ 0.682 µM). The IC90 in [5] was greater than 0.4 µg/mL; in assay [6] it was 0.08 µg/mL (≈ 0.136 µM). Further, the “Barley Powdery Mildew Control at a compound concentration of 10 ppm or lower” value in assay [1] was “C (from 25 to 49% control of barley powdery mildew)”. The “Septoria Leaf Blotch Control at a compound concentration of 25 ppm or lower” value in assay [4] is reported as “B (from 50 to 69% control of wheat septoria leaf blotch)”. The “Wheat Fusarium Head Blight Control at a compound concentration of 25 ppm or lower” value with Fusarium graminearum is on record as “C (from 25 to 49% control of wheat fusarium head blight)”. Also, in the assay with Sphaerotheca fuliginea, the “Cucumber Powdery Mildew Control at a compound concentration of 10 ppm or lower” value is given as “AA (≥85% control of cucumber powdery mildew)”. Further, in the assay with Puccinia triticina, the “Wheat Leaf Rust Control … of 10 ppm or lower” value is “AA (≥85% control of wheat leaf rust)”.
